Data set [1] in a line: Cytotoxicity, ATPlite Luminescence Assay. The settings on record: human, HepG2 or HepG2.117 cells, 3-days incubation unless marked with *. The class given is cell-based, human. On the procedure:
Cytotoxicity of the compounds was tested using HepG2 or HepG2.117 cells, incubated for 3 or 4 days in the presence of compounds. The viability of the cells was assessed using the PERKIN ELMER ATPlite Luminescence Assay System.”
On the technique in general: ATP-based viability assays read luminescence as a measure of living cells.

In data set [2] the test system is HBV (HepG2.117 cell line, inducibly HBV producing). Description: Anti-HBV activity, intracellular HBV DNA by real-time PCR in HepG2.117 cell line. The class given is cell-based, hepatitis B virus. To be noted: Hepatitis B virus, HepG2.117, 72 h, HepG2.117 cells, 3 days of treatment. On the procedure:
The anti HBV activity was measured using the HepG2.117 cell line, a stable, inducibly HBV producing cell line, which replicates HBV in the absence of doxycycline (Tet-off system). The HepG2 cell line is available from ATCCR under number HB-8065. Transfection of the HepG2 cell line can be as described in Sun and Nassal 2006 Journal of Hepatology 45 (2006) 636-645 “Stable HepG2- and Huh7-based human hepatoma cell lines for efficient regulated expression of infectious hepatitis B virus”.
For the antiviral assay, HBV replication was induced, followed by a treatment with serially diluted compound in 96-well plates. After 3 days of treatment, the antiviral activity was determined by quantification of intracellular HBV DNA using real-time PCR and an HBV specific primer set and probe.
In general terms: In qPCR the cycle at which signal appears reflects the starting amount.

Data set [3] is described as follows: Human liver microsome stability. To be noted: human, pooled human liver microsomes, pH 7.4, pooled human liver microsomes 0.5 mg/mL, 1 μM compound, NADPH 1 mM, 37° C., 0-60 min; read-out: HLM Metabolism t1/2. The class given is in vitro ADME. As to the method: Human Liver Microsome Stability t½ (Min) of Compounds of Formula (I) […] All incubations are performed singularly for each compound. NADPH was added to initiate the reaction with the final concentration of 1 mM and the final incubation volume of 400 μL. At 6 time points (0, 5, 10, 20, 40 and 60 min) reactions were stopped by the removal of 50 μL of the incubation mixture into plates containing acetonitrile at a of 1:3 (v:v). The plates were centrifuged at 3000 rpm for 10 min at 4° C. to precipitate the protein. Following protein precipitation, the sample supernatants were combined in cassettes of up to 8 compounds. The internal standard was added (1:1 supernatant to internal standard solution) and samples were analyzed using standard LC-MS conditions. From a plot of ln peak area ratio (compound peak area/internal standard peak area) against time, the gradient of the line is determined. Subsequently, half-life is calculated using the equations below: Elimination rate constant (k)=(−gradient) […]
(In general: Microsomes from liver hold many membrane-bound enzymes, among them those of drug oxidation.)

Each structure is given as a SMILES string.

Broadly, the CC50 is the concentration that lowers cell viability or growth by half. Low readings indicate greater toxicity to the cells, high ones lower toxicity to the cells. As for `CC(c1ccccn1)N1CCn2nc3c(c2C1=O)CN(C(=O)c1ccc(Cl)c(Cl)c1)[C@H](C)C3` (mixture of isomers) [Ref 3, reference compound], the CC50 at 3 days in data set [1] was more than 50 µM.
What is called EC50 is the concentration that produces a half-maximal response. Lower therefore signals greater potency. For `C[C@@H]1Cc2nn3c(c2CN1C(=O)c1ccc(Cl)c(C#N)c1)C(=O)N([C@H](C)c1ccc(OC(F)F)cc1)C[C@@H]3C` (relative stereo) [Compound 1A, 2-Chloro-5-((3R,7S*)-9-((R*)-1-(4-(difluoromethoxy)phenyl)ethyl)-3,7-dimethyl-10-oxo-1,2,3,4,7,8,9,10-octahydropyrido[4′,3′:3,4]pyrazolo[1,5-a]pyrazine-2-carbonyl)benzonitrile], the CC50 at 3 days in data set [1] was more than 50 µM. The midpoint of the response in data set [2], the EC50, lay at 0.21 µM. Moreover, the half-life at 1 μM in data set [3] is 0.235 h.
In the same order, the values of `C[C@@H]1Cc2nn3c(c2CN1C(=O)c1ccc(Cl)c(C#N)c1)C(=O)N([C@@H](C)c1ccc(OC(F)F)cc1)C[C@@H]3C` (relative stereo) [Compound 1B, 2-Chloro-5-((3R,7S*)-9-((S*)-1-(4-(difluoromethoxy)phenyl)ethyl)-3,7-dimethyl-10-oxo-1,2,3,4,7,8,9,10-octahydropyrido[4′,3′:3,4]pyrazolo[1,5-a]pyrazine-2-carbonyl)benzonitrile] are more than 50 µM, 1.49 µM and 0.612 h.
In the same order, the values of `C[C@@H]1Cc2nn3c(c2CN1C(=O)c1ccc(Cl)c(C#N)c1)C(=O)N([C@H](C)c1ccc(OC(F)F)cc1)C[C@H]3C` (relative stereo) [Compound 1C, 2-Chloro-5-((3R,7R*)-9-((R*)-1-(4-(difluoromethoxy)phenyl)ethyl)-3,7-dimethyl-10-oxo-1,2,3,4,7,8,9,10-octahydropyrido[4′,3′:3,4]pyrazolo[1,5-a]pyrazine-2-carbonyl)benzonitrile] are more than 50 µM, 0.044 µM and more than 3 h.
The compound `C[C@@H]1Cc2nn3c(c2CN1C(=O)c1ccc(Cl)c(Cl)c1)C(=O)N([C@H](C)c1ccc([S@](C)(=N)=O)cc1)C[C@H]3C` (relative stereo) [Compound 18A, (3R,7R)-2-(3,4-dichlorobenzoyl)-3,7-dimethyl-9-((R*)-1-(4-((R*)—S-methylsulfonimidoyl)phenyl)ethyl)-1,2,3,4,8,9-hexahydropyrido[4′,3′:3,4]pyrazolo[1,5-a]pyrazin-10(7H)-one] came in with a CC50 at 3 days in data set [1] of more than 50 µM. The EC50 in data set [2] worked out at 0.084 µM. In addition, the half-life at 1 μM in data set [3] was more than 3 h.
In the same order, the values of `C[C@@H]1Cc2nn3c(c2CN1C(=O)c1ccc(Cl)c(Cl)c1)C(=O)N([C@H](C)c1ccc([S@@](C)(=N)=O)cc1)C[C@H]3C` (relative stereo) [Compound 18B, (3R,7R)-2-(3,4-dichlorobenzoyl)-3,7-dimethyl-9-((R*)-1-(4-((S*)—S-methylsulfonimidoyl)phenyl)ethyl)-1,2,3,4,8,9-hexahydropyrido[4′,3′:3,4]pyrazolo[1,5-a]pyrazin-10(7H)-one] are more than 50 µM, 0.031 µM and more than 3 h.
`C[C@@H]1Cc2nn3c(c2CN1C(=O)c1ccc(Cl)c(Cl)c1)C(=O)N([C@@H](C)c1ccc([S@](C)(=N)=O)cc1)C[C@H]3C` (relative stereo) [Compound 18C, (3R,7R)-2-(3,4-dichlorobenzoyl)-3,7-dimethyl-9-((S*)-1-(4-((R*)—S-methylsulfonimidoyl)phenyl)ethyl)-1,2,3,4,8,9-hexahydropyrido[4′,3′:3,4]pyrazolo[1,5-a]pyrazin-10(7H)-one] showed a CC50 at 3 days in data set [1] of more than 50 µM. For the same compound, in data set [2], the EC50 amounted to 0.03 µM. The half-life at 1 μM in data set [3] is more than 3 h.
In the same order, the values of `C[C@@H]1Cc2nn3c(c2CN1C(=O)c1ccc(Cl)c(Cl)c1)C(=O)N([C@@H](C)c1ccc([S@@](C)(=N)=O)cc1)C[C@H]3C` (relative stereo) [Compound 18D, (3R,7R)-2-(3,4-dichlorobenzoyl)-3,7-dimethyl-9-((S*)-1-(4-((S*)—S-methylsulfonimidoyl)phenyl)ethyl)-1,2,3,4,8,9-hexahydropyrido[4′,3′:3,4]pyrazolo[1,5-a]pyrazin-10(7H)-one] are more than 50 µM, 0.024 µM and more than 3 h.
As to `C[C@@H]1Cc2nn3c(c2CN1C(=O)c1ccc(Cl)c(C(F)(F)F)c1)C(=O)N([C@H](C)c1ccc([S@](C)(=N)=O)cc1)C[C@H]3C` (relative stereo) [Compound 19A, (3R,7R)-2-(4-chloro-3-(trifluoromethyl)benzoyl)-3,7-dimethyl-9-((R*)-1-(4-((R*)—S-methylsulfonimidoyl)phenyl)ethyl)-1,2,3,4,8,9-hexahydropyrido[4′,3′:3,4]pyrazolo[1,5-a]pyrazin-10(7H)-one], the CC50 at 3 days in data set [1] is more than 50 µM. The compound further had an EC50 in data set [2] of 0.026 µM. Besides, the half-life at 1 μM in data set [3] is more than 3 h.
For the compound `C[C@@H]1Cc2nn3c(c2CN1C(=O)c1ccc(Cl)c(C(F)(F)F)c1)C(=O)N([C@H](C)c1ccc([S@@](C)(=N)=O)cc1)C[C@H]3C` (relative stereo) [Compound 19B, (3R,7R)-2-(4-chloro-3-(trifluoromethyl)benzoyl)-3,7-dimethyl-9-((R*)-1-(4-((S*)—S-methylsulfonimidoyl)phenyl)ethyl)-1,2,3,4,8,9-hexahydropyrido[4′,3′:3,4]pyrazolo[1,5-a]pyrazin-10(7H)-one], the CC50 at 3 days in data set [1] is more than 50 µM. The compound also had an EC50 in data set [2] of 0.015 µM. Besides, the half-life at 1 μM in data set [3] is more than 3 h.
As for `C[C@@H]1Cc2nn3c(c2CN1C(=O)c1ccc(Cl)c(C(F)(F)F)c1)C(=O)N([C@@H](C)c1ccc([S@](C)(=N)=O)cc1)C[C@H]3C` (relative stereo) [Compound 19C, (3R,7R)-2-(4-chloro-3-(trifluoromethyl)benzoyl)-3,7-dimethyl-9-((S*)-1-(4-((R*)—S-methylsulfonimidoyl)phenyl)ethyl)-1,2,3,4,8,9-hexahydropyrido[4′,3′:3,4]pyrazolo[1,5-a]pyrazin-10(7H)-one], the CC50 at 3 days in data set [1] is more than 50 µM. In data set [2], this compound yielded an EC50 of 0.011 µM. In addition, the half-life at 1 μM in data set [3] was more than 3 h.
Take `C[C@@H]1Cc2nn3c(c2CN1C(=O)c1ccc(Cl)c(C(F)(F)F)c1)C(=O)N([C@@H](C)c1ccc([S@@](C)(=N)=O)cc1)C[C@H]3C` (relative stereo) [Compound 19D, (3R,7R)-2-(4-chloro-3-(trifluoromethyl)benzoyl)-3,7-dimethyl-9-((S*)-1-(4-((S*)—S-methylsulfonimidoyl)phenyl)ethyl)-1,2,3,4,8,9-hexahydropyrido[4′,3′:3,4]pyrazolo[1,5-a]pyrazin-10(7H)-one]: the CC50 at 3 days in data set [1] is more than 50 µM. The same compound returned an EC50 in data set [2] of 0.011 µM. In data set [3], the half-life at 1 μM is more than 3 h.
`Cc1ncnn1-c1ccc([C@H](C)N2C[C@@H](C)n3nc4c(c3C2=O)CN(C(=O)c2ccc(Cl)c(Cl)c2)[C@H](C)C4)cn1` (relative stereo) [Compound 25B, (3R,7R)-2-(3,4-dichlorobenzoyl)-3,7-dimethyl-9-((S*)-1-(6-(5-methyl-11H-1,2,4-triazol-1-yl)pyridin-3-yl)ethyl)-1,2,3,4,8,9-hexahydropyrido[4′,3′:3,4]pyrazolo[1,5-a]pyrazin-10(7H)-one] returned a CC50 at 3 days in data set [1] of more than 50 µM. This compound also yielded an EC50 in data set [2] of 0.017 µM. Besides, in data set [3], the half-life at 1 μM was found to be 1.49 h.
`CN=[S@](C)(=O)c1ccc([C@@H](C)N2C[C@@H](C)n3nc4c(c3C2=O)CN(C(=O)c2ccc(Cl)c(Cl)c2)[C@H](C)C4)cn1` (relative stereo) [Compound 29A, (3R,7R)-2-(3,4-dichlorobenzoyl)-9-((R*)-1-(6-((R*)—N,S-dimethylsulfonimidoyl)pyridin-3-yl)ethyl)-3,7-dimethyl-1,2,3,4,8,9-hexahydropyrido[4′,3′:3,4]pyrazolo[1,5-a]pyrazin-10(7H)-one] gave a CC50 at 3 days in data set [1] of more than 50 µM. Moreover, in data set [2], the 50% effective concentration (EC50) amounted to 0.74 µM. Moreover, the half-life at 1 μM in data set [3] was determined as 1.7 h.
Take `C[C@@H]1Cc2nn3c(c2CN1C(=O)c1ccc(Cl)c(Cl)c1)C(=O)N([C@H](C)c1ccc(C#N)cc1)CC3` [Ref 4, reference compound]: in data set [1], the CC50 at 3 days is more than 50 µM.
On the same count and under the same terms, as for `C[C@@H]1Cc2nn3c(c2CN1C(=O)c1ccc(Cl)c(Cl)c1)C(=O)N([C@@H](C)c1ccc(C#N)cc1)CC3` [Ref 5, reference compound], the figure is more than 50 µM.

The record behind these values is patent US20240287070A1, “FUSED HETEROCYCLIC DERIVATIVES” (Janssen Sciences Ireland Unlimited Company, priority 2021, published 2024).
